The subject of the assay is P. falciparum 3D7 growth, pLDH absorbance. The experiment in a line: P. falciparum 3D7 growth inhibition, dose response, strain 3D7 (AID 2305).

A word on the IC50: it is the concentration that inhibits the measured activity by half. A lower IC50 goes with greater potency in that assay. In turn, `NC(=O)C1CCN(Cc2ccc(-c3ccc(-c4nc5ccc(F)cc5[nH]4)cc3)cc2)CC1` came in with an IC50 of 810 nM.

Consider `FC(F)(F)COc1ccc(CCNCCCCNCCc2ccc(OCC(F)(F)F)c3ccccc23)c2ccccc12`, for which the IC50 amounted to 650 nM. The IC50 values of the last two compounds are within 1.5-fold of each other.

`CC1(C)C=C(c2ccncc2)c2cc(Cl)ccc2O1` gave an IC50 of 430 nM.

In turn, `Cc1cccc(CNc2nc(C)cc(N[C@@H](Cc3ccccc3)C(=O)NCc3cccc(F)c3)n2)c1` returned an IC50 of 1040 nM.

`O=C(c1cc2nc3c(c(C(F)(F)F)n2n1)CCc1ccccc1-3)N1CCN2CCCC2C1` (centres undefined): the IC50 was 950 nM.

As for `C[C@H](Cc1ccc(OCCCCCCOc2ccccc2)cc1)NC[C@H](O)c1cccc(Cl)c1`, the IC50 came out at 70 nM.

In turn, `NC(=O)c1cccc(C(=O)Nc2cccc(-c3ccc(-c4nc5ccccc5[nH]4)s3)c2)c1` yielded an IC50 of 350 nM.

Regarding `COCc1ccccc1C(=O)NCCOc1cc(C)cc(C)c1`, the half-maximal inhibitory concentration (IC50) came to 350 nM.

Compound `CCC1(C)CC(CCNCc2ccccc2O)(c2ccc(C)cc2)CCO1` (centres undefined) had a 50% inhibitory concentration (IC50) of 40 nM. This IC50 lies about 8.8-fold lower than the previous one.

With `Cc1cccc(Nc2nc(NCCCCN)nc3cc[nH]c(=O)c23)c1`, the IC50 came to 730 nM.

`COc1cc(C(=O)Nc2ccc(-c3nc4ccccc4[nH]3)cc2)cc(OC)c1OC` had an IC50 of 980 nM.

`COc1ccc(C(=O)NC(Nc2ccc([N+](=O)[O-])cc2)C(Cl)(Cl)Cl)cc1` (centres undefined): the IC50 came to 1070 nM.

`COc1cc2c(c(OC)c1OC)C[C@H]1c3c(cc4c(c3-2)OCO4)CCN1C`: the IC50 stood at 970 nM.

For `CCC(C)c1ccc(NC(=O)Nc2ccnc3ccccc23)cc1` (centres undefined), the concentration for half-maximal inhibition (IC50) stood at 630 nM.

Consider `Cc1ccccc1C1CCN(C2CCC(NC(=O)c3ccc(-c4ccccn4)s3)CC2)CC1` (centres undefined), for which the IC50 is 1180 nM. Compared with the last compound, the IC50 is about 1.9-fold higher.

Regarding `OC(CNCc1ccccc1Oc1ccccc1)c1cccc(C(F)(F)F)c1` (centres undefined), the IC50 amounted to 710 nM.

Regarding `NC1=NC(CCc2ccccc2)N(c2ccccc2)C(N)=N1` (centres undefined), the IC50 was 80 nM.

`COc1ccc2nc(-c3ccccc3)cc(NCCN(C)C)c2c1` displayed an IC50 of 730 nM.

In the case of `COc1ccc2nccc([C@@H](O)CN3CCC(NC(=O)c4nc(Cl)c(Cl)c(N)c4Cl)CC3)c2c1`, the IC50 came out at 1300 nM.

In turn, `O=C(Nc1ccc(-c2cccc(-c3nc4ccc(F)cc4[nH]3)c2)cc1)Nc1ccc(Cl)c(Cl)c1` displayed an IC50 of 650 nM.

`O=C(Nc1ccc(C(F)(F)F)cc1)Nc1cccc([N+](=O)[O-])c1`: the IC50 was determined as 870 nM.

For `CCNc1cc(C(=O)N[C@@H](Cc2ccccc2)[C@H](O)CNCC(C)C)cc(N2CCCC2=O)c1`, the IC50 was found to be 490 nM.

`CCCCCCCCNc1c2ccc(Cl)cc2nc2ccc(OC)cc12` returned an IC50 of 810 nM.

As for `CCOC(=O)c1ccc(-c2cnoc2-c2cc(CC)c(OC)cc2O)o1`, the IC50 was 280 nM.

`Cc1ccc(C2CCN(CCCCNC(=O)c3ccc(-c4ccc(C(F)(F)F)cc4)cc3)CC2)c(O)c1` returned an IC50 of 130 nM.

Turning to `CCCC(C)N(Cc1ccc(C(C)(C)C)cc1)C(=O)c1cccc(C#N)c1` (centres undefined), the IC50 amounted to 1050 nM.

As for `COc1cccc(CNC[C@@H](O)[C@H](Cc2ccccc2)NC(=O)c2cc3c4c(c2)c(C(C)C)cn4CCS(=O)(=O)N3C)c1`, the IC50 came to 150 nM.

Compound `Cc1cc(NCC(C)C)c2[nH]nc(-c3ccccc3)c2n1` returned an IC50 of 740 nM.

Consider `CN1C(C)(C)CC(NC(=O)c2ccc(-c3nc4cc(Cl)c(Cl)cc4[nH]3)cc2)CC1(C)C`, for which the IC50 worked out at 730 nM.

For `Cc1cc(C)cc(CC(=O)N2CCC(n3c(C)nc4ccc(C)cc43)CC2)c1`, the 50% inhibitory concentration (IC50) was determined as 530 nM. The IC50 values of the last two compounds are within 1.5-fold of each other.

Compound `Nc1ncc(-c2cc3ccccc3o2)c(N)n1` yielded an IC50 of 1410 nM.

For `FC(F)(F)c1cccc(CCNc2nccc(NCc3ccccc3Cl)n2)c1`, the IC50 stood at 1170 nM.

The compound `CCCN(Cc1ccc(C)cc1)Cc1cc(=O)c2cc(Cl)ccc2[nH]1` yielded an IC50 of 1050 nM.

`COc1ccc2c(c1)Sc1ccccc1C(N1CCN(CCO)CC1)C2` (centres undefined) returned an IC50 of 1390 nM.

For `COc1ccc2c(OC)cccc2c1CNCCCCCCNCc1c(OC)ccc2c(OC)cccc12`, the IC50 came to 690 nM.

`Cc1cccc2[nH]c(-c3ccc(-c4cccc(NC(=O)CCc5cnc[nH]5)c4)s3)nc12` returned a half-maximal inhibitory concentration (IC50) of 840 nM. This IC50 and that of the compound before are within 1.5-fold of each other.

The compound `COc1ccc2nccc([C@@H](O)CN3CCC(NC(=O)c4ccc(OC)c(N)c4)CC3)c2c1` had a 50% inhibitory concentration (IC50) of 710 nM.

`CCOC(=O)C(=O)N1c2ccc(OCC)cc2-c2c(ssc2=S)C1(C)C` yielded a concentration for half-maximal inhibition (IC50) of 220 nM.

Regarding `CC(C)C[C@H](NC(=O)c1ccc(OCCN2CCOCC2)cc1)C(=O)NC(/C=N/N1CCCC1=O)C(C)C` (some centres undefined), the IC50 is 250 nM.

For `CCCCCCCc1c2c(C)c(C(=O)OCC)nc-2cc2n1CC(C)=C2C`, the IC50 was found to be 1140 nM.

For `NC(=O)NC(=O)C=Cc1ccco1`, the IC50 stood at 150 nM.

In the case of `c1ncc(CCNc2nc(Nc3ccc4c(c3)OCO4)nc(NC3CCCC3)n2)[nH]1`, the IC50 was determined as 1150 nM.

For `CC(C)CNCc1cccc(-c2ccc(CN(C(=O)NCCc3ccccc3)C3CCN(Cc4ccccc4)CC3)cc2)c1`, the IC50 came out at 760 nM.

With `c1cc(COc2ccc(C3=NCCN3)cc2)nc(COc2ccc(C3=NCCN3)cc2)c1`, the IC50 was determined as 150 nM.

In the case of `Cc1csc(NC(=O)c2cn(-c3ccccc3)nc2-c2cccs2)n1`, the IC50 turned out to be 910 nM.

As for `FC(F)(F)c1ccc2c(C=Cc3ccncc3)c[nH]c2c1`, the IC50 is 710 nM.

Take `O=C(/C=C/c1c[nH]c2ccccc12)NCCCCCN1CCC(c2c[nH]c3ccccc23)CC1`: the IC50 came out at 930 nM.

Take `Cc1cccc2[nH]c(-c3cccc(-c4cccc(CNCc5ccc(S(C)(=O)=O)cc5)c4)c3)nc12`: the IC50 worked out at 300 nM.

Compound `COc1cc(F)c2ncc(Cl)c(CCN3CCC(NCc4ccc5c(c4)NC(=O)CS5)CC3)c2c1` showed an IC50 of 310 nM.

The compound `Cc1cccc2[nH]c(-c3ccc(-c4ccc(NC(=O)Nc5ccsc5)cc4)cc3)nc12` displayed an IC50 of 170 nM.

In the case of `CCOC(=O)C1=C(C)NC(C)=C(C(=O)OCC)C1(C(=O)OCc1ccccc1)c1cccc(C(F)(F)F)c1`, the half-maximal inhibitory concentration (IC50) turned out to be 1230 nM. Against the preceding compound, the IC50 is about 7.2-fold higher.

As for `CSc1ccc2ccccc2c1CNCCCCCCNCc1c(SC)ccc2ccccc12`, the IC50 turned out to be 800 nM. Against the preceding compound, the IC50 is about 1.5-fold lower.

Consider `N#Cc1cccc(NC(=O)c2cccc(S(=O)(=O)NC3CCN(CC4CCCCC4)C3)c2)c1` (centres undefined), for which the IC50 was determined as 580 nM.

The compound `COc1ccccc1CCN(C)CCN1CCC(NC(=O)c2ccc(-c3ccc(C(F)(F)F)cc3)cc2)CC1` came in with an IC50 of 1030 nM. Against the preceding compound, the IC50 is about 1.8-fold higher.

The compound `CCOC(=O)N1CCN(CCCNc2c3ccccc3nc3ccccc23)CC1` returned a half-maximal inhibitory concentration (IC50) of 1010 nM.

With `COc1cc(C(=O)NC2CC(C)(C)N(C)C(C)(C)C2)ccc1-c1nc2cc(Cl)c(Cl)cc2[nH]1`, the IC50 amounted to 790 nM. This IC50 and that of the compound before are within 1.5-fold of each other.

Consider `CC(C)(C)CNc1noc(-c2sccc2Br)n1`, for which the IC50 was found to be 1120 nM.

Compound `CS(=O)(=O)Cc1ccc(Nc2ncc(Cl)c(Nc3cccnc3C(N)=O)n2)cc1` came in with a 50% inhibitory concentration (IC50) of 870 nM.

Regarding `CC(NC(=O)c1ccc(O)c(-c2ccc(Cl)c(Cl)c2)c1)C(=O)NCCN1CCCC1` (centres undefined), the IC50 came out at 760 nM.

Take `CCCc1cc(=O)oc2cc(OC)c(C(=O)CC(C)C)c(OC)c12`: the IC50 amounted to 1010 nM.

Regarding `Cc1cc(NC(=O)Nc2ccc(C(C)(C)C)cc2)c2ccccc2n1`, the IC50 worked out at 720 nM.

For `COc1ccc(CNC2CCN(C)CC2)cc1-c1ccc(S(=O)(=O)NCCc2ccccn2)c(F)c1`, the 50% inhibitory concentration (IC50) was determined as 820 nM. The IC50 values of the last two compounds are within 1.5-fold of each other.

Consider `CCCCn1c(=N)c(C(=O)NCc2cccnc2)cc2c(=O)n3cccc(C)c3nc21`, for which the IC50 stood at 740 nM.

As to `O[C@@H](c1ccccc1)[C@@H]1CN(CCC2C[C@@H]3CC[C@H]2C3)CC[C@@]1(O)c1ccccc1` (some centres undefined), the 50% inhibitory concentration (IC50) came out at 350 nM.
